Assay results taken from patent US11377442B2, “Small molecule agonists and antagonists of NR2F6 activity” (ZANDER THERAPEUTICS, INC., priority 2016, dated 2022).
Where two headings read alike, the source gives them in different places.

Assays:
Format in all cases: cell-based
ERα [1] = target: T1, ERα (Homo sapiens, UniProt P03372); test: Counterscreening, Firefly signal with ERα transient transfection (Firefly_ERa)
T1 construct: expressed in transfected cells
T1 sequence (P03372 1-595): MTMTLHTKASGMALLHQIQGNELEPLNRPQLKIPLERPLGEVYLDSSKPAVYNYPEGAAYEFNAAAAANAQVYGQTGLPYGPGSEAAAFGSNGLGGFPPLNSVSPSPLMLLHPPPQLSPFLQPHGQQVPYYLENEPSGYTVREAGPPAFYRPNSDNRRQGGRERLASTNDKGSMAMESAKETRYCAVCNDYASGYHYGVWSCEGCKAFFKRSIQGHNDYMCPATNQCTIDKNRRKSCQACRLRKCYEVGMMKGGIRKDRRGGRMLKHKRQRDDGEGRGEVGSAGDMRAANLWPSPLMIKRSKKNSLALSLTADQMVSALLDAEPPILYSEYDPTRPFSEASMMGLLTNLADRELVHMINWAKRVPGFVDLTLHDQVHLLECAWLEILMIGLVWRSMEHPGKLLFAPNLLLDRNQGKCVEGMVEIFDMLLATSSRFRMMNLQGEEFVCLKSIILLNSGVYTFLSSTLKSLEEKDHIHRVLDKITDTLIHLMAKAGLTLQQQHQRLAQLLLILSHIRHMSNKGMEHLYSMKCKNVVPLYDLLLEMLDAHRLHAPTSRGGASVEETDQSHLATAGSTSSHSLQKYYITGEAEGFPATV

NR2F6 = target: T2, NR2F6 (Homo sapiens, UniProt P10588); test: NR2F6 agonist screening, Firefly signal cmpd/DMSO
T2 construct: expressed in transfected cells; also transient transfection
T2 sequence (P10588 1-404): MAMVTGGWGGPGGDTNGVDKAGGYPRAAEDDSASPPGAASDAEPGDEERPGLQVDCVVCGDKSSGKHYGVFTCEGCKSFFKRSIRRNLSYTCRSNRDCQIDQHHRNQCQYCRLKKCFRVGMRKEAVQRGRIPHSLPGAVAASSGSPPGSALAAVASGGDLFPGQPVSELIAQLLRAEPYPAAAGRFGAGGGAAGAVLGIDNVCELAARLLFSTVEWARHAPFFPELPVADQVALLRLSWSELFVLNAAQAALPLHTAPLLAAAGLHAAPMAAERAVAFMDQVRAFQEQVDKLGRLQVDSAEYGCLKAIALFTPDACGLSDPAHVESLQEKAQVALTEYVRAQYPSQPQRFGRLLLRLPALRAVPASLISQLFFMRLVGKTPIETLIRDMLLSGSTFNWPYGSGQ

ERα [2] = target: T1, ERα; test: Counterscreening, Firefly signal with ERα transient transfection (Firefly_ERa); conditions: 10 uM
Description: The methodology for screening candidate compounds as NR2F6 agonists was as follows: For primary screening, hit criteria was ACT %>DMSO control+5*SD (DSO control) at 10 μM, or any compound with S/B>2. For rescreening, hit criteria was ACT %>DMSO control+3*SD (DSO control) in each replicate at 10 μM. For counterscreening, hit criteria was mean ACT<DMSO control+3*SD (DMSO control) with ERα transient transfection in duplicate at 10 μM.

Renilla = Renilla signal in NR2F6 agonist screening, cmpd/DMSO; conditions: for fold induction at 2 µM / fold induction at 10 µM / fold induction at 40 µM: Renilla, read-out: Renilla F4, cmpd/DMSO (mean)
Renilla_ERa = test: Renilla signal in ERα counterscreen (Renilla_ERa); conditions: for fold induction at 2 µM / fold induction at 10 µM / fold induction at 40 µM: read-out: Renilla ERalpha transient, cmpd/DMSO (mean)

Structure (SMILES)	Firefly ERalpha transient, cmpd/DMSO (mean) (ERα [1]; 2 uM)	Firefly ERalpha transient, cmpd/DMSO (mean) (ERα [1]; 40 uM)	Firefly F4, cmpd/DMSO (mean) (NR2F6; 2 uM, clone F4)	Firefly F4, cmpd/DMSO (mean) (NR2F6; 10 uM, clone F4)	Firefly F4, cmpd/DMSO (mean) (NR2F6; 40 uM, clone F4)	Firefly ERalpha transient, cmpd/DMSO (mean) (ERα [2])	fold induction at 2 µM (Renilla; 2 uM, clone F4)	fold induction at 10 µM (Renilla; 10 uM, clone F4)	fold induction at 40 µM (Renilla; 40 uM, clone F4)	fold induction at 2 µM (Renilla_ERa; 2 uM)	fold induction at 10 µM (Renilla_ERa; 10 uM)	fold induction at 40 µM (Renilla_ERa; 40 uM)	other results
CC(C)Nc1nc(N2CCCC2)nc(N2CCn3c(cccc3=O)C2)n1 [Compound 35]	1.0	1.3	1.1	1.0	0.8	0.9							Renilla F4, cmpd/DMSO (mean) (Renilla; 2 uM, clone F4): 1.1; Renilla F4, cmpd/DMSO (mean) (Renilla; 10 uM, clone F4): 0.9; Renilla F4, cmpd/DMSO (mean) (Renilla; 40 uM, clone F4): 0.9; Renilla ERalpha transient, cmpd/DMSO (mean) (Renilla_ERa; 2 uM): 1.0; Renilla ERalpha transient, cmpd/DMSO (mean) (Renilla_ERa; 10 uM): 1.0; Renilla ERalpha transient, cmpd/DMSO (mean) (Renilla_ERa; 40 uM): 1.1
CCOC(=O)c1cnc2c(C)cc(C)cc2c1NCCCO [Compound Z70]													Firefly ERalpha transient, cmpd/DMSO (mean) (ERα [1]; Table 15, 2 uM): 0.9; Firefly ERalpha transient, cmpd/DMSO (mean) (ERα [1]; Table 15, 40 uM): 1.5; Firefly F4, cmpd/DMSO (mean) (NR2F6; Table 15, 2 uM): 1.1; Firefly F4, cmpd/DMSO (mean) (NR2F6; Table 15, 10 uM): 1.0; Firefly F4, cmpd/DMSO (mean) (NR2F6; Table 15, 40 uM): 1.0; Firefly ERalpha transient, cmpd/DMSO (mean) (ERα [2]; Table 15): 1.1; fold induction at 2 µM (Renilla; Table 15, 2 uM): 0.8; fold induction at 10 µM (Renilla; Table 15, 10 uM): 1.3; fold induction at 40 µM (Renilla; Table 15, 40 uM): 1.3; fold induction at 2 µM (Renilla_ERa; Table 15, 2 uM): 1.1; fold induction at 10 µM (Renilla_ERa; Table 15, 10 uM): 1; fold induction at 40 µM (Renilla_ERa; Table 15, 40 uM): 1.2
O=c1cccc2n1CCN(c1nc(NCC3CCCO3)nc(N3CCOCC3)n1)C2 (stereo not shown) [Compound 33]	1.3	1.4	0.8	1.0	1.1	1.3							Renilla F4, cmpd/DMSO (mean) (Renilla; 2 uM, clone F4): 1.2; Renilla F4, cmpd/DMSO (mean) (Renilla; 10 uM, clone F4): 1.3; Renilla F4, cmpd/DMSO (mean) (Renilla; 40 uM, clone F4): 1.4; Renilla ERalpha transient, cmpd/DMSO (mean) (Renilla_ERa; 2 uM): 1.2; Renilla ERalpha transient, cmpd/DMSO (mean) (Renilla_ERa; 10 uM): 1.1; Renilla ERalpha transient, cmpd/DMSO (mean) (Renilla_ERa; 40 uM): 1.3
Cc1ccc(NC(=O)c2noc3c2CC(C)(C)CC3)cc1C [Compound Z1]													Firefly ERalpha transient, cmpd/DMSO (mean) (ERα [1]; Table 15, 2 uM): 2.4; Firefly ERalpha transient, cmpd/DMSO (mean) (ERα [1]; Table 15, 40 uM): 0.9; Firefly F4, cmpd/DMSO (mean) (NR2F6; Table 15, 2 uM): 1.9; Firefly F4, cmpd/DMSO (mean) (NR2F6; Table 15, 10 uM): 1.8; Firefly F4, cmpd/DMSO (mean) (NR2F6; Table 15, 40 uM): 0.8; Firefly ERalpha transient, cmpd/DMSO (mean) (ERα [2]; Table 15): 2.2; fold induction at 2 µM (Renilla; Table 15, 2 uM): 1.3; fold induction at 10 µM (Renilla; Table 15, 10 uM): 1.6; fold induction at 40 µM (Renilla; Table 15, 40 uM): 0.8; fold induction at 2 µM (Renilla_ERa; Table 15, 2 uM): 1.1; fold induction at 10 µM (Renilla_ERa; Table 15, 10 uM): 1; fold induction at 40 µM (Renilla_ERa; Table 15, 40 uM): 0.7
Cc1cc(-c2ccccc2)nc(Nc2nc(-c3ccccc3)c(CC(=O)O)s2)n1 [Compound 30]	1.1	1.3	1.5	1.6	1.8	1.5	1.2	2.3	3.4	1.2	1.2	1	
O=c1cccc2n1CC1CC2CN(c2nc(N3CCOCC3)nc(N3CCOCC3)n2)C1 (stereo not shown) [Compound 31]	0.8	1.0	0.8	1.0	0.9	1.2	1	1	1	1	1.1	1.1	
COc1nc(NCCC2=CCCCC2)nc(N2CC3CC(C2)c2cccc(=O)n2C3)n1 (stereo not shown) [Compound 38]	0.8	0.5	1.2	0.8	0.7	0.9	1.1	1.1	1.3	1.2	1.1	1.1	
CC(=O)Nc1ccc(Br)c2nonc12 [Compound Z14]													Firefly ERalpha transient, cmpd/DMSO (mean) (ERα [1]; Table 15, 2 uM): 1.0; Firefly ERalpha transient, cmpd/DMSO (mean) (ERα [1]; Table 15, 40 uM): 1.0; Firefly F4, cmpd/DMSO (mean) (NR2F6; Table 15, 2 uM): 1.2; Firefly F4, cmpd/DMSO (mean) (NR2F6; Table 15, 10 uM): 0.8; Firefly F4, cmpd/DMSO (mean) (NR2F6; Table 15, 40 uM): 1.2; Firefly ERalpha transient, cmpd/DMSO (mean) (ERα [2]; Table 15): 1.2; fold induction at 2 µM (Renilla; Table 15, 2 uM): 0.8; fold induction at 10 µM (Renilla; Table 15, 10 uM): 0.9; fold induction at 40 µM (Renilla; Table 15, 40 uM): 1; fold induction at 2 µM (Renilla_ERa; Table 15, 2 uM): 1.1; fold induction at 10 µM (Renilla_ERa; Table 15, 10 uM): 1.1; fold induction at 40 µM (Renilla_ERa; Table 15, 40 uM): 1
CCOC(=O)Cc1sc(Nc2nc(C)cc(C)n2)nc1-c1ccccc1 [Compound 28]	1.0	0.6	1.2	0.9	0.6	0.5	1.1	0.8	0.6	1.2	0.8	0.7	

More lines, main results first:

Firefly ERalpha transient, cmpd/DMSO (mean) (ERα [1]; 2 uM)	Firefly ERalpha transient, cmpd/DMSO (mean) (ERα [1]; 40 uM)	Firefly F4, cmpd/DMSO (mean) (NR2F6; 2 uM, clone F4)	Firefly F4, cmpd/DMSO (mean) (NR2F6; 10 uM, clone F4)	Firefly F4, cmpd/DMSO (mean) (NR2F6; 40 uM, clone F4)	Firefly ERalpha transient, cmpd/DMSO (mean) (ERα [2])	Structure (SMILES)	fold induction at 2 µM (Renilla; 2 uM, clone F4)	fold induction at 10 µM (Renilla; 10 uM, clone F4)	fold induction at 40 µM (Renilla; 40 uM, clone F4)	fold induction at 2 µM (Renilla_ERa; 2 uM)	fold induction at 10 µM (Renilla_ERa; 10 uM)	fold induction at 40 µM (Renilla_ERa; 40 uM)	other results
1.2	0.8	0.8	1.0	0.7	0.5	COc1ccc2nc(C(F)(F)F)c(C#N)c(NCCc3ccc(Cl)cc3)c2c1 [Compound Z39]	0.7	0.5	0.5	1.1	0.6	0.6	
1.5	0.5	0.9	0.5	0.7	0.3	N#Cc1c(C(F)(F)F)nc2ccc(Cl)cc2c1NC1CC1 [Compound Z48]	0.8	0.6	0.6	1.1	0.8	0.6	
2.1	8.8	1.7	2.0	6.6	1.8	CCOC(=O)c1cnc2ccc(C)cc2c1NCCCN(C)C [Compound Z33]	1.1	1	0.6	1	1.5	0.9	activity (in words) (NR2F6; screening result): particularly good activity
1.0	0.4	0.8	0.4	0.5	0.3	CNc1c(C#N)c(C(F)(F)F)nc2ccc(Oc3ccccc3)cc12 [Compound Z53]	0.7	0.7	0.6	1	0.6	0.5	
